# Measured values from ChEMBL document CHEMBL4613212, “Insights of synthetic analogues of anti-leprosy agents” (Bioorg Med Chem, 2019).
# How the values were obtained:
# Type in all cases: functional
# [1] = tested on: Staphylococcus aureus; test: Antimicrobial activity against Staphylococcus aureus ATCC 25923 by broth microdilution assay
# [2] = tested on: Enterococcus faecalis; test: Antimicrobial activity against Enterococcus faecalis ATCC 51922 by broth microdilution assay
# [3] = tested on: Listeria monocytogenes; test: Antimicrobial activity against Listeria monocytogenes ATCC 1911 by broth microdilution assay
# [4] = tested on: Escherichia coli; test: Antimicrobial activity against Escherichia coli ATCC 35218 by broth microdilution assay
# [5] = tested on: Enterococcus faecalis; test: Antimicrobial activity against Enterococcus faecalis ATCC 29212 by broth microdilution assay
# [6] = tested on: Mycobacterium tuberculosis; test: Antitubercular activity against Mycobacterium tuberculosis H37Rv ATCC 27294 incubated for 7 days by microplate alamar blue assay; conditions: H37Rv ATCC 27294, 168 h
# [7] = tested on: Pseudomonas aeruginosa; test: Antimicrobial activity against Pseudomonas aeruginosa ATCC 27853 by broth microdilution assay
# [8] = tested on: Escherichia coli; test: Antimicrobial activity against Escherichia coli ATCC 25922 by broth microdilution assay
# [9] = tested on: Klebsiella pneumoniae; test: Antimicrobial activity against Klebsiella pneumoniae 700603 by broth microdilution assay
# [10] = tested on: Mycobacterium tuberculosis; test: Antitubercular activity against Mycobacterium tuberculosis H37Rv ATCC 27294 assessed as inhibition of [3H]-thymidine incorporation relative to control
# [11] = tested on: Mycobacterium tuberculosis; test: Antitubercular activity against Mycobacterium tuberculosis H37Rv ATCC 27294 assessed as growth inhibition at 6.25 ug/ml by microplate alamar blue assay relative to control
# [12] = tested on: Mycobacterium leprae; test: Anti-leprotic activity against Mycobacterium leprae assessed as maximum bactericidal dilutions
# [13] = tested on: Mycobacterium tuberculosis; test: Antitubercular activity against Mycobacterium tuberculosis infected in mouse assessed as reduction in microbial load at 2 to 3 mg ip, pretreated for 48 to 72 hrs followed by microbial infection and subsequent compound dosing at 48 to 72 hrs post-infection measured 24 to 32 days post-infection relative to control; set-up: scale not given: the % may be the effect or the level left
compound,measurement,setting,value
CC(C)c1ccc(/C=N/NC(=S)Nc2ccc(C(F)(F)F)cc2)cc1,MIC,[1],400 µg/mL
same,MIC,[2],400 µg/mL
same,MIC,[3],400 µg/mL
same,MIC,[4],800 µg/mL
same,MIC,[5],400 µg/mL
same,MIC,[6],200 µg/mL
same,MIC,[7],400 µg/mL
same,MIC,[8],400 µg/mL
same,MIC,[9],400 µg/mL
c1coc(-c2ncnc3c2ncn3C2CCOCC2)c1,inhibition (INH),[10],15%
same,inhibition at 6.25 µg/mL,[11],0%
CCCCCCCCC(C(=O)O)C1CCCCC1 (centres undefined),fold change (FC),[12],110
FC(F)(F)c1ccc(NC(=S)N/N=C/c2ccc(Br)cc2)cc1,MIC,[1],400 µg/mL
same,MIC,[2],400 µg/mL
same,MIC,[3],400 µg/mL
same,MIC,[4],800 µg/mL
same,MIC,[5],400 µg/mL
same,MIC,[6],400 µg/mL
same,MIC,[7],400 µg/mL
same,MIC,[8],400 µg/mL
same,MIC,[9],400 µg/mL
O=S(=O)(O)c1cc2c(O)c(c1)Cc1cc(S(=O)(=O)O)cc(c1O)Cc1cc(S(=O)(=O)O)cc(c1O)Cc1cc(S(=O)(=O)O)cc(c1O)Cc1cc(S(=O)(=O)O)cc(c1O)Cc1cc(S(=O)(=O)O)cc(c1O)Cc1cc(S(=O)(=O)O)cc(c1O)Cc1cc(S(=O)(=O)O)cc(c1O)C2,Activity,[13],50 - 80%
Clc1nc(-c2ccco2)c2ncn(C3CCOCC3)c2n1,inhibition (INH),[10],36%
same,inhibition at 6.25 µg/mL,[11],6%
c1csc(-c2[nH]cnc3ncnc2-3)c1,inhibition (INH),[10],<10%
same,inhibition at 6.25 µg/mL,[11],7%
COCCOCCOCCOc1c2cc(C(C)(C)C)cc1Cc1cc(C(C)(C)C)cc(c1OCCOCCOCCOC)Cc1cc(C(C)(C)C)cc(c1OCCOCCOCCOC)Cc1cc(C(C)(C)C)cc(c1OCCOCCOCCOC)Cc1cc(C(C)(C)C)cc(c1OCCOCCOCCOC)Cc1cc(C(C)(C)C)cc(c1OCCOCCOCCOC)Cc1cc(C(C)(C)C)cc(c1OCCOCCOCCOC)Cc1cc(C(C)(C)C)cc(c1OCCOCCOCCOC)C2,Activity,[13],80 - 100%
CCCCCCCC(CCC1CCCC1)C(=O)O (centres undefined),fold change (FC),[12],170
FC(F)(F)c1ccc(/C=N/NC(=S)Nc2ccc(C(F)(F)F)cc2)cc1,MIC,[1],400 µg/mL
same,MIC,[2],400 µg/mL
same,MIC,[3],800 µg/mL
same,MIC,[4],400 µg/mL
same,MIC,[5],100 µg/mL
same,MIC,[6],200 µg/mL
same,MIC,[7],400 µg/mL
same,MIC,[8],400 µg/mL
same,MIC,[9],400 µg/mL
Oc1ccc(/C=N/NC(=S)Nc2ccc(C(F)(F)F)cc2)cc1,MIC,[1],400 µg/mL
same,MIC,[2],400 µg/mL
same,MIC,[3],400 µg/mL
same,MIC,[4],400 µg/mL
same,MIC,[5],400 µg/mL
same,MIC,[6],400 µg/mL
same,MIC,[7],400 µg/mL
same,MIC,[8],400 µg/mL
same,MIC,[9],400 µg/mL
Cn1cnc2c(-c3ccco3)ncnc21,inhibition (INH),[10],<10%
same,inhibition at 6.25 µg/mL,[11],0%
CC(C)(C)c1cc2c(O)c(c1)Cc1cc(C(C)(C)C)cc(c1OCCOCCOCCOCCOCCOCCO)Cc1cc(C(C)(C)C)cc(c1O)Cc1cc(C(C)(C)C)cc(c1OCCOCCOCCOCCOCCOCCO)Cc1cc(C(C)(C)C)cc(c1O)Cc1cc(C(C)(C)C)cc(c1OCCOCCOCCOCCOCCOCCO)Cc1cc(C(C)(C)C)cc(c1O)Cc1cc(C(C)(C)C)cc(c1OCCOCCOCCOCCOCCOCCO)C2,Activity,[13],20 - 50%
CC(C)(C)c1cc2c(OCCOCCOCCOCCOCCOCCO)c(c1)Cc1cc(C(C)(C)C)cc(c1OCCOCCOCCOCCOCCOCCO)Cc1cc(C(C)(C)C)cc(c1OCCOCCOCCOCCOCCOCCO)Cc1cc(C(C)(C)C)cc(c1OCCOCCOCCOCCOCCOCCO)Cc1cc(C(C)(C)C)cc(c1OCCOCCOCCOCCOCCOCCO)Cc1cc(C(C)(C)C)cc(c1OCCOCCOCCOCCOCCOCCO)Cc1cc(C(C)(C)C)cc(c1OCCOCCOCCOCCOCCOCCO)Cc1cc(C(C)(C)C)cc(c1OCCOCCOCCOCCOCCOCCO)C2,Activity,[13],80 - 100%
FC(F)(F)c1ccc(NC(=S)N/N=C/c2ccc(Cl)cc2)cc1,MIC,[1],400 µg/mL
same,MIC,[2],400 µg/mL
same,MIC,[3],800 µg/mL
same,MIC,[4],400 µg/mL
same,MIC,[5],400 µg/mL
same,MIC,[6],400 µg/mL
same,MIC,[7],400 µg/mL
same,MIC,[8],400 µg/mL
same,MIC,[9],400 µg/mL
CCCCCCCCC(CCC1CCCC1)C(=O)O (centres undefined),fold change (FC),[12],180
CCCCCCCCCCCC(C(=O)O)C1CCCC1 (centres undefined),fold change (FC),[12],153
CCCCCCCCCC(C(=O)O)C1CCCCC1 (centres undefined),fold change (FC),[12],190
Clc1nc(-c2cccs2)c2ncn(C3CCOCC3)c2n1,inhibition (INH),[10],61%
same,inhibition at 6.25 µg/mL,[11],7%
